Patent US8440841B2, “5-pyrrolidinylsulfonyl isatin derivatives” (Universitätsklinikum Münster, priority 2005, dated 2013)

Key:
[1] = target: T1, recombinant human caspase 3 (Homo sapiens, UniProt P42574); assay: Caspase inhibition assay, standard fluorometric assay with Ac-DEVD-AMC; format: biochemical; settings: Ki(app) = IC50/(1 + [S]/KM), [S] = 10 μM Ac-DEVD-AMC, 37° C., pH 7.5
T1 construct: Recombinant full-length human caspase-3 was purified as described previously [21b]; made in house
T1 sequence (P42574 29-175 limits assumed): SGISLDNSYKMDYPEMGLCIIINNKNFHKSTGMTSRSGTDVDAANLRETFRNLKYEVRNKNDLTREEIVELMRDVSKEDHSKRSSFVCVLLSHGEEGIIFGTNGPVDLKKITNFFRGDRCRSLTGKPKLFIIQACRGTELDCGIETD
T1 sequence (P42574 176-277 limits assumed): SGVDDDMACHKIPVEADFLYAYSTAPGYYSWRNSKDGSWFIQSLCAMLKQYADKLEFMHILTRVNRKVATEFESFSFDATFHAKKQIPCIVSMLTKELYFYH
Description: The inhibition of recombinant human caspase 3 by twentythree isatin sulfonamides (twenty
Recombinant full-length human caspase-3 was purified as described previously [21b]. […] Enzyme assays were performed in a 200 μl volume at 37° C. in reaction buffer containing 0.1% CHAPS, 50 mM KCl, 5 mM β-mercaptoethanol, 25 mM HEPES (pH 7.5) and nonradioactive isatins in DMSO each in single doses (end concentrations 500 μM, 50 μM, 5 μM, 500 nM, 50 nM, 5 nM, 500 pM, 50 pM or 5 pM). […] After 10 min incubation time Ac-DEVD-AMC (end concentration 10 μM) was added and reacted for further 10 min. […] The IC50-values were determined by non-linear regression analysis using the XMGRACE program (Linux software) and converted into the corresponding Ki-values by the equation Ki=IC50/(1+[S]/KM) assuming competitive inhibition by the isatin derivatives, where [S] is the concentration and KM is the Michaelis constant of substrate Ac-DEVD-AMC.

[2] = target: T2, active caspase-3 (Homo sapiens, UniProt P42574); assay: Cellular caspase assay: growth factor withdrawal-induced apoptosis in HUVEC, Western blot; format: cell-based; settings: 8 hours, at 10 μM (FIGS. 1 and 2)
T2 construct: endogenous in cells; host or cells: HUVEC
T2 sequence (P42574 29-175 limits assumed): T1 sequence (P42574 29-175 limits assumed)
T2 sequence (P42574 176-277 limits assumed): T1 sequence (P42574 176-277 limits assumed)
Description: In the context of cellular apoptosis assays concentration- and time-dependent kinetics of mentioned CbRs and CbR-transporter conjugates are performed to evaluate the pharmacological inhibition of apoptosis in viable apoptotic cells (e.g. growth factor withdrawal-induced, drug-induced, or ionizing radiation-induced apoptosis in endothelial cells).
HUVEC (Human umbilical vein endothelial cells) were cultivated on gelatine (2%)-coated dishes in RPMI-1640 containing 15% bovine calf serum, 1% Pen/Strep/Amph, 1% Heparin and 0.05 mg/ml bovine pituitary extract (BPE) at 37° C. in 5% CO2. Apoptosis was induced by growth factor withdrawal as previously described. For caspase inhibition experiments, cells were pre-incubated for 30 min with the compounds in the indicated concentrations. The medium was then removed and replaced with RPMI-1640 without serum or BPE, and the cells were incubated in the presence or absence of the various inhibitor concentrations for 8 hours. All cells were then harvested in lysis buffer, incubated for 10 min on ice, and cell debris was removed by centrifugation at 14000 rpm at 4° C. for 10 min. Protein concentration was determined by the Pierce protein assay, and 30 μg cell lysate were loaded on 15% SDS-Page gels and transferred to Immobilon PVDF membranes. Western blots were performed with antibodies to active caspase-3 (Cell Signaling) and developed using ECL (Amersham).
A quantitative (pharmacological) inhibition of before mentioned target caspases with the non-radioactive PET- or SPECT-compatible CbRs of presented invention needs macroscopic amounts of the inhibitor, i.e. concentrations of caspase inhibitor that are definitely more than necessarily needed for molecular imaging purposes.

[3] = Small-animal PET biodistribution after i.v. injection; format: in vivo, WT Mouse (Nu/Nu); settings: mouse, 180 min p.i.
Description: PET was performed using a high-resolution dedicated small-animal PET system (32-module quadHIDAC; Oxford Positron Systems) which uses multiwire chamber detectors with submillimeter-resolution potency. For each data acquisition, up to two mice were placed on a heating pad to maintain a normal body temperature. The animals were anesthetised by inhalation of isoflurane (1.5%) and intravenously injected with approximately 7 MBq of each radiotracer in 100 μL isotonic as well as isohydric solution.
A small-animal PET scan was performed with the quadHIDAC device to trace the in vivo biodistribution behavior of the PET-compatible CbR (S)-1-(4-(2[<18>F]fluoroethoxy)benzyl)-5-[1-(2-methoxymethylpyrrolidinyl)-sulfonyl]isatin [<18>F]VI. Immediately after i.v. injection of [<18>F]VI (A=7MBq, pH=8, A5=48 GBq/[mu]mol, V=100 [mu]1 in sodium bicarbonate buffered saline solution) data acquisition was started. List-mode data were acquired for 180 min and subsequently reconstructed into an image volume of 90×90×120 mm<3>, voxel size 0.4×0.4×0.4 mm<3>, using an iterative reconstruction algorithm (OPL-EM). […] Mentioned hot spot remains even 6 h p.i. (data not shown).

| Structure (SMILES) | Ki [1] [nM] | melting point | other results |
| --- | --- | --- | --- |
| O=C1C(=O)N(Cc2ccc(OCCF)cc2)c2ccc(S(=O)(=O)N3CCC[C@H]3COc3ccccc3)cc21 [V, (S)-1-(4-(2-fluoroethoxy)benzyl)-5-[1-(2-phenoxymethylpyrrolidinyl)sulfonyl]isatin] | 0.4 |  |  |
| COC[C@@H]1CCCN1S(=O)(=O)c1ccc2c(c1)C(=O)C(=O)N2Cc1ccc(O)cc1 [IVa, (S)-1-(p-hydroxybenzyl)-5-[1-(2-methoxymethylpyrrolidinyl)sulfonyl]isatin] | 45 |  |  |
| COC[C@@H]1CCCN1S(=O)(=O)c1ccc2c(c1)C(=O)C(=O)N2Cc1ccc(OCCF)cc1 [VI, (S)-1-(4-(2-fluoroethoxy)benzyl)-5-[1-(2-methoxymethylpyrrolidinyl)sulfonyl]isatin] | 36 |  | inhibition of caspase progression (Western blot, active caspase-3) [2]: recognizable |
| COC[C@@H]1CCCN1S(=O)(=O)c1ccc2c(c1)C(=O)C(=O)N2Cc1ccc(OCCOS(=O)(=O)c2ccc(C)cc2)cc1 [VIa, (S)-1-(4-(2-(p-methylphenylsulfonyloxy)ethoxy)benzyl)-5-[1-(2-methoxymethylpyrrolidinyl)sulfonyl]isatin] | 2 | 61 to 62 °C |  |
| Cc1ccc(S(=O)(=O)OCCOc2ccc(CN3C(=O)C(=O)c4cc(S(=O)(=O)N5CCC[C@H]5COc5ccccc5)ccc43)cc2)cc1 [Va, (S)-1-(4-(2-(p-methylphenylsulfonyloxy)ethoxy)benzyl)-5-[1-(2-phenoxymethylpyrrolidinyl)sulfonyl]isatin] | 17 |  |  |
| COC[C@@H]1CCCN1S(=O)(=O)c1ccc2c(c1)C(=O)C(=O)N2Cc1ccc(I)cc1 [compound 2, (S)-1-(4-iodobenzyl)-5-[1-(2-methoxymethylpyrrolidinyl)sulfonyl]isatin] | 11 | 129 to 130 °C | inhibition of caspase progression (Western blot, active caspase-3) [2]: recognizable |
| COC[C@@H]1CCCN1S(=O)(=O)c1ccc2c(c1)C(=O)C(=O)N2 [IIa, (S)-5-(1-[2-(methoxymethyl)pyrrolidinyl]-sulfonyl)isatin, reference compound] | 77 |  |  |
| COC[C@@H]1CCCN1S(=O)(=O)c1ccc2c(c1)C(=O)C(=O)N2Cc1ccc(OCC[18F])cc1 [[^18F]VI, (S)-1-(4-(2-[^18F]Fluoroethoxy)benzyl)-5-[1-(2-methoxymethylpyrrolidinyl)-sulfonyl]isatin] |  |  | clearance of radioactivity from peripheral organs (PET) ([3]; 7 MBq, all peripheral organs (FIG. 3)): cleared; remaining radioactivity (PET) ([3]; hot spot (putatively gall bladder) remains even 6 h p.i.): only remains in the bowels and in a hot spot nearby the liver |
| O=C1C(=O)N(Cc2ccc(Br)cc2)c2ccc(S(=O)(=O)N3CCC[C@H]3COc3ccccc3)cc21 [1c, (S)-(+)-1-(4-bromobenzyl)-5-[1-(2-phenoxymethylpyrrolidinyl)sulfonyl]isatin] | 3 |  |  |
| O=C1C(=O)N(Cc2ccc(I)cc2)c2ccc(S(=O)(=O)N3CCC[C@H]3COc3ccccc3)cc21 [compound 1, (S)-1-(4-iodobenzyl)-5-[1-(2-phenoxymethylpyrrolidinyl)sulfonyl]isatin] |  | 88 to 90 °C |  |
| O=C1C(=O)N(Cc2ccc(OCCBr)cc2)c2ccc(S(=O)(=O)N3CCC[C@H]3COc3ccccc3)cc21 [Vaa, (S)-1-(4-(2-bromoethoxy)benzyl)-5-[1-(2-phenoxymethylpyrrolidinyl)sulfonyl]isatin] | 25 | 162 to 163 °C |  |
| COC[C@@H]1CCCN1S(=O)(=O)c1ccc2c(c1)C(=O)C(=O)N2C [II, (S)-5-[1-(2-methoxymethylpyrrolidinyl)sulfonyl]-1-methyl-isatin] | 2 | 143 to 144 °C | inhibition of caspase progression (Western blot, active caspase-3) [2]: recognizable |
| CC(C)(C)[Si](C)(C)Oc1ccc(CN2C(=O)C(=O)c3cc(S(=O)(=O)N4CCC[C@H]4COc4ccccc4)ccc32)cc1 [IIIab, (S)-1-(p-tert-butyldimethylsilyloxybenzyl)-5-[1-(2-phenoxymethylpyrrolidinyl)sulfonyl]-isatin] | 20 |  |  |
| O=C1C(=O)N(Cc2ccc(OCc3ccccc3)cc2)c2ccc(S(=O)(=O)N3CCC[C@H]3COc3ccccc3)cc21 [IIIaa, (S)-(+)-1-(4-benzyloxybenzyl)-5-[1-(2-phenoxymethylpyrrolidinyl)-sulfonyl]isatin] | 6.9 | 69 to 70 °C |  |
| COC[C@@H]1CCCN1S(=O)(=O)c1ccc2c(c1)C(=O)C(=O)N2Cc1ccc(OC)cc1 [IV, (S)-1-(4-methoxybenzyl)-5-[1-(2-methoxymethylpyrrolidinyl)sulfonyl]isatin] | 9 |  | inhibition of caspase progression (Western blot, active caspase-3) [2]: recognizable |
| COC[C@@H]1CCCN1S(=O)(=O)c1ccc2c(c1)C(=O)C(=O)N2Cc1ccc(OCc2ccccc2)cc1 [IVaa, (S)-(+)-1-(4-benzyloxybenzyl)-5-[1-(2-methoxymethylpyrrolidinyl)-sulfonyl]isatin] | 5 | 73 to 74 °C |  |
| O=C1C(=O)N(Cc2ccc(O)cc2)c2ccc(S(=O)(=O)N3CCC[C@H]3COc3ccccc3)cc21 [IIIa, (S)-1-(p-hydroxybenzyl)-5-[1-(2-phenoxymethylpyrrolidinyl)sulfonyl]isatin] | 3 |  |  |
| C[Si](C)(C)c1ccc(CN2C(=O)C(=O)c3cc(S(=O)(=O)N4CCC[C@H]4COc4ccccc4)ccc32)cc1 [1b, (S)-5-[1-(2-phenoxymethylpyrrolidinyl)sulfonyl]-1-(4-trimethylsilylbenzyl)-isatin] | 0.7 | 128 to 130 °C (dec.) |  |
| COC[C@@H]1CCCN1S(=O)(=O)c1ccc2c(c1)C(=O)C(=O)N2Cc1ccc(OCCBr)cc1 [VIaa, (S)-1-(4-(2-bromoethoxy)benzyl)-5-[1-(2-methoxymethylpyrrolidinyl)-sulfonyl]isatin] | 13 | 61 to 62 °C |  |
| COC[C@@H]1CCCN1S(=O)(=O)c1ccc2c(c1)C(=O)C(=O)N2Cc1ccc(O[Si](C)(C)C(C)(C)C)cc1 [IVab, (S)-1-(p-tert-butyldimethylsilyloxybenzyl)-5-[1-(2-methoxymethylpyrrolidinyl)sulfonyl]-isatin] | 4 |  |  |
